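Protocol summary: plate cells (96-well), add compound at 5 concentrations, incubate 48 h, interpolate endpoints linearly. Here, GI50 denotes the concentration required for 50% inhibition of growth. TGI marks complete inhibition of growth.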
How the values were obtained:
Assay in all cases: NCI tumour cell line growth inhibition, 48 h
NCI-H23 lung = system: NCI-H23 lung
SK-OV-3 ovarian = system: SK-OV-3 ovarian
LOX IMVI melanoma = system: LOX IMVI melanoma
NCI-H522 lung = system: NCI-H522 lung
NCI-H226 lung = system: NCI-H226 lung
SF-295 CNS = system: SF-295 CNS
SF-268 CNS = system: SF-268 CNS
BT-549 breast = system: BT-549 breast
DU-145 prostate = system: DU-145 prostate
EKVX NSCLC = system: EKVX NSCLC

| SMILES | GI50 (NCI-H23 lung) | TGI (NCI-H23 lung) | GI50 (SK-OV-3 ovarian) | TGI (SK-OV-3 ovarian) | GI50 (LOX IMVI melanoma) | TGI (LOX IMVI melanoma) | GI50 (NCI-H522 lung) | TGI (NCI-H522 lung) | GI50 (NCI-H226 lung) | TGI (NCI-H226 lung) | GI50 (SF-295 CNS) | TGI (SF-295 CNS) | GI50 (SF-268 CNS) | TGI (SF-268 CNS) | GI50 (BT-549 breast) | TGI (BT-549 breast) | GI50 (DU-145 prostate) | TGI (DU-145 prostate) | TGI (EKVX NSCLC) | GI50 (EKVX NSCLC) |
| --- | --- | --- | --- | --- | --- | --- | --- | --- | --- | --- | --- | --- | --- | --- | --- | --- | --- | --- | --- | --- |
| O=C([CH-]C(=O)c1ccccc1)c1ccccc1.O=C([CH-]C(=O)c1ccccc1)c1ccccc1.O=C([CH-]C(=O)c1ccccc1)c1ccccc1.[Ga+3] | 47.4 µM | > 100 µM | 63.5 µM | > 100 µM | 18 µM | > 100 µM | 19.3 µM | 68.6 µM | 26.1 µM | > 100 µM | 38.7 µM | > 100 µM | 35.1 µM | > 100 µM |  |  |  |  |  |  |
| O=C1C=C(Nc2ccccc2)c2ccccc2C1=O | 1.98 µM | 4.91 µM | 2.95 µM | 8.99 µM | 1.51 µM | 3.17 µM | 1.67 µM | 3.36 µM | 1.93 µM | 4.21 µM | 1.9 µM | 3.5 µM | 2.67 µM | 8.71 µM | 1.73 µM | 3.16 µM | 1.84 µM | 3.29 µM |  |  |
| N#CCCNc1nonc1-c1nc2ccccc2n1CC(=O)c1ccc(N)cc1 | 0.0312 µM | > 100 µM | 0.0189 µM | 0.0665 µM | 0.0326 µM | > 100 µM | < 0.01 µM | < 0.01 µM | 0.098 µM | > 100 µM | < 0.01 µM | > 100 µM | 0.023 µM | > 82 µM | 0.0289 µM | 22.9 µM | 0.0288 µM | 0.0984 µM |  |  |
| COc1ccc(C(=O)C(C(=O)CCC(=O)Nc2ccc(Cl)c(Cl)c2)c2ccc(OC)cc2)cc1 (stereo not given) |  | > 100 µM |  |  |  | > 100 µM |  | > 100 µM |  | > 100 µM |  | > 100 µM |  | > 100 µM |  |  |  |  | > 100 µM |  |
| C/C(CN1C(=O)c2ccccc2C1=O)=N\NS(=O)(=O)c1ccc2ccccc2c1 |  | > 100 µM |  | > 100 µM |  | > 100 µM |  | > 100 µM |  | > 100 µM |  | > 100 µM |  | > 100 µM |  |  |  |  | > 100 µM |  |
| Cc1ccc(S(=O)c2ccccc2[N+](=O)[O-])cc1 (stereo not given) |  | > 100 µM |  | > 100 µM |  | > 100 µM |  | > 100 µM |  | 85.9 µM |  | > 100 µM |  |  |  |  |  |  |  |  |
| Cn1ncnc1[C@@H]1c2n[nH]c(=O)c3cc(F)cc(c23)N[C@H]1c1ccc(F)cc1 | > 100 µM | > 100 µM | > 100 µM | > 100 µM | > 100 µM | > 100 µM | > 100 µM | > 100 µM | > 100 µM | > 100 µM |  |  | > 100 µM | > 100 µM | > 100 µM | > 100 µM | > 100 µM | > 100 µM |  |  |
| C[C@@H]1C(=O)CC2C(C)(C)CCC[C@]2(C)[C@@]12CC[C@]1(C=COC1)O2 (stereo not given in full) |  |  |  | 91.7 µM |  | > 100 µM |  | 50 µM |  | > 100 µM |  | > 100 µM |  | > 100 µM |  |  |  |  | > 100 µM |  |
| C=CCC1(O)c2ccccc2C(=O)c2c(OCC(=O)OCC)ccc(OCC(=O)OCC)c21 (stereo not given) | > 100 µM | > 100 µM |  |  | > 100 µM | > 100 µM | > 100 µM | > 100 µM | > 100 µM | > 100 µM | > 100 µM | > 100 µM | > 100 µM | > 100 µM | > 100 µM | > 100 µM | > 100 µM | > 100 µM | > 100 µM | > 100 µM |
| CN(C)CCC(N)(P(=O)([O-])[O-])P(=O)([O-])[O-].N.N.[Pt+2] |  |  |  |  | > 100 µM | > 100 µM | > 100 µM | > 100 µM | > 100 µM | > 100 µM | > 100 µM | > 100 µM | > 100 µM | > 100 µM |  |  |  |  | > 100 µM | > 100 µM |
| NC(N)NCCCc1cn2c(n1)C1CCCN1C(=O)C2Cc1ccccc1 (stereo not given) |  | > 100 µM |  | > 100 µM |  | > 100 µM |  | > 100 µM |  | > 100 µM |  | > 100 µM |  | > 100 µM |  |  |  |  | > 100 µM |  |
| CN(C)CC1CC/C(=C\c2ccc(Cl)c(Cl)c2)C1=O (stereo not given) |  | 47.3 µM |  | > 100 µM |  | 18.4 µM |  | 17.7 µM |  | > 100 µM |  | > 78.4 µM |  | > 74.3 µM |  |  |  |  | > 58.7 µM |  |
| O=C(CCc1nnc2s/c(=C\c3ccc([N+](=O)[O-])cc3)c(=O)n12)Nc1ccc(Cl)c(Cl)c1 |  | 75.6 µM |  | > 100 µM |  | 31.9 µM |  | 32.3 µM |  | 37 µM |  | 58.4 µM |  | 35.7 µM |  |  |  |  |  |  |
| C=CCc1cccc(C=O)c1O | > 100 µM | > 100 µM | > 100 µM | > 100 µM | 17.3 µM | > 100 µM | > 100 µM | > 100 µM | > 100 µM | > 100 µM | > 100 µM | > 100 µM | 25.2 µM | > 100 µM | 10.4 µM | > 100 µM | > 100 µM | > 100 µM |  |  |
| CC(C)=CCc1cc2c(cc1O)C1=C(C(=O)C3=C(NCCS3(=O)=O)C1=O)C(C=C(C)C)O2 (stereo not given) | 5.8 µM | > 16.7 µM | > 16.7 µM | > 16.7 µM | 4.48 µM | > 16.7 µM | 2.93 µM | 9.09 µM | 14.4 µM | > 16.7 µM | > 16.7 µM | > 16.7 µM | 4.13 µM | > 16.7 µM | 14.1 µM | > 16.7 µM |  |  | > 16.7 µM | 6.24 µM |
| CC(=O)C1(O)CC2(c3ccccc3)C(=O)C1(c1ccccc1)C(c1ccccc1)=C2c1ccccc1 (stereo not given) |  | > 100 µM |  | > 100 µM |  | > 100 µM |  | > 100 µM |  | > 100 µM |  | > 100 µM |  | > 100 µM |  |  |  |  | > 100 µM |  |
| C=C(CO)C(=O)OC1CC(=C)C2CC(O)C(C)C2C2OC(=O)C(=C)C12 (stereo not given) |  | > 100 µM |  | > 100 µM |  | > 100 µM |  | 45.8 µM |  |  |  | 38.8 µM |  | 39.4 µM |  | 32.3 µM |  | > 100 µM | > 100 µM |  |
